The source of these data is ChEMBL document CHEMBL5096171, “Synthesis and Biological Evaluation of PSMA Ligands with Aromatic Residues and Fluorescent Conjugates Based on Them” (J Med Chem, 2021).

For orientation: inhibition means the relative decrease from the control value, in per cent. The Ki is a dissociation constant, usually derived from enzyme kinetics or from competition with a known ligand. The term CC50 denotes the concentration at which the toxic effect on the cells reaches its halfway point. For orientation: solubility means how much of the substance goes into solution per volume. For orientation: logD means lipophilicity at a set pH, counting ionised and neutral species. A low value points to a more hydrophilic compound.

Converted amounts (≈) assume the structure as drawn. Where only a bound is given, the exact number is not on record here.

A short description of data set [1]: Drug uptake in human LNCaP cells assessed as drug accumulation by measuring fluorescence signal at 4 uM incubated for 30 mins by flow cytometry. The format is ADME, cell-based. Conditions: 0.5 h; call rule not given here.
Data set [2] can be described thus: Drug uptake in human LNCaP cells assessed as decrease in drug accumulation incubated for 1 hr in presence of (3S,7S,25S,28S)-33-Azido-25-benzyl-12-(3-chlorobenzyl)-28-(4-hydroxybenzyl)-5,13,20,23,26,29-hexaoxo-4,6,12,19,24,27,30-heptaazatritriacontane-1,3,7-tricarboxylic acid by flow cytometry. The format is ADME, cell-based. (A flow cytometer gives signals particle by particle.)

Data set [3] can be described thus: Drug uptake in human PC-3 cells assessed as drug accumulation by measuring fluorescence signal at 4 uM incubated for 30 mins by flow cytometry. The format is ADME, cell-based. Conditions: pc-3, 0.5 h.
Data set [4] is described as follows: Drug uptake in human PC-3 cells assessed as decrease in drug accumulation incubated for 1 hr in presence of (3S,7S,25S,28S)-33-Azido-25-benzyl-12-(3-chlorobenzyl)-28-(4-hydroxybenzyl)-5,13,20,23,26,29-hexaoxo-4,6,12,19,24,27,30-heptaazatritriacontane-1,3,7-tricarboxylic acid by flow cytometry. Format: ADME, cell-based. Conditions: pc-3, 1 h.
Data set [5] is described as follows: Drug uptake in human 22Rv1 cells assessed as decrease in drug accumulation incubated for 1 hr in presence of (3S,7S,25S,28S)-33-Azido-25-benzyl-12-(3-chlorobenzyl)-28-(4-hydroxybenzyl)-5,13,20,23,26,29-hexaoxo-4,6,12,19,24,27,30-heptaazatritriacontane-1,3,7-tricarboxylic acid by flow cytometry. Format: ADME, cell-based. As to conditions: cwr22r.
The nature of data set [6]: Drug uptake in human 22Rv1 cells assessed as drug accumulation by measuring fluorescence signal at 4 uM incubated for 30 mins by flow cytometry. Format: ADME, cell-based. Conditions: cwr22r, 0.5 h.
Data set [7] concerns the target T1, Glutamate carboxypeptidase 2 (Homo sapiens, UniProt Q04609). Nature of the data set: Inhibition of PMSA in human PC-3 cells assessed as increase in fluorescent signal upto 100 nM incubated for 1 hr by flow cytometry (reference value: 1.14%). The format is cell-based.
Target sequence in this assay (Q04609 whole entry, looked up): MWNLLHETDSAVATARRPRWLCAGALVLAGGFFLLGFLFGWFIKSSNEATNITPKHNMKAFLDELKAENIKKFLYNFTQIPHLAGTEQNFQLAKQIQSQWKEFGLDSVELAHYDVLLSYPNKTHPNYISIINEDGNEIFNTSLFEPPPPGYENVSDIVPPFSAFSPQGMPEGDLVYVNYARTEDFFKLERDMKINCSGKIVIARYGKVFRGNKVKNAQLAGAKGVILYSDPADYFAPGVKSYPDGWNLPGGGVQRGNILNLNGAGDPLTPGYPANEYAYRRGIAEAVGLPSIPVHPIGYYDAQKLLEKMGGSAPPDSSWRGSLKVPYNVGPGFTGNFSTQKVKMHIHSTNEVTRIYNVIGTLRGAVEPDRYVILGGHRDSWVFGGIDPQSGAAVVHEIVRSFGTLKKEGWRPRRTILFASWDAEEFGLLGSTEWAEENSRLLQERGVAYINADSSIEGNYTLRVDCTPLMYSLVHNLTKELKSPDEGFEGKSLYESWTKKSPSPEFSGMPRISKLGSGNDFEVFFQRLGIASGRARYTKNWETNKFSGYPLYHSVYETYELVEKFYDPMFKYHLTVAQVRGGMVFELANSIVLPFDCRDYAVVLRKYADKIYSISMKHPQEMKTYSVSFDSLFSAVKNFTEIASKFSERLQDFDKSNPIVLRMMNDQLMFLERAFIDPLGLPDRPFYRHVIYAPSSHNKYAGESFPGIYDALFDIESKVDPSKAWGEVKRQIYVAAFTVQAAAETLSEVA
The target of data set [8] is T1, Glutamate carboxypeptidase 2. Nature of the data set: Inhibition of PSMA derived from human LNCaP cell lysate assessed as inhibition of NAAG hydrolysis incubated for 2 hrs in presence of NAAG by Amplex Red assay. Format: subcellular.
Target sequence in this assay (Q04609 whole entry): as the sequence (Q04609 whole entry, looked up) above
A short description of data set [9]: Drug excretion in […] at 0.449 mg/kg, IT administered as single dose measured after 24 hrs. The format is ADME, organism-based, CWR22R. Conditions: in vivo, other.
The target in data set [10] is T1, Glutamate carboxypeptidase 2. Nature of the data set: Inhibition of PMSA in human 22Rv1 cells assessed as increase in fluorescent signal upto 100 nM incubated for 1 hr by flow cytometry (reference value: 2.97%). Format: cell-based.
Target sequence in this assay (Q04609 whole entry, looked up): as above
A short description of data set [11]: Drug uptake in skin capillary of Balb/c nude mouse xenografted with human 22Rv1 cells at 0.449 mg/kg, IT administered as single dose measured after 24 hrs. The format is ADME, organism-based, Skin of body, CWR22R. As to conditions: in vivo, other. (In general: A xenograft is tissue or cells of one species grown in another, often human tumour cells in immunodeficient mice.)

Data set [12] can be described thus: Drug uptake in human LNCaP cells assessed as fold decrease in drug accumulation incubated for 1 hr in presence of (3S,7S,25S,28S)-33-Azido-25-benzyl-12-(3-chlorobenzyl)-28-(4-hydroxybenzyl)-5,13,20,23,26,29-hexaoxo-4,6,12,19,24,27,30-heptaazatritriacontane-1,3,7-tricarboxylic acid by flow cytometry. Format: ADME, cell-based.
The subject of a further data set is PC-3. Nature of the data set: Cytotoxicity against human PC-3 cells assessed as reduction in cell viability incubated for 5 days by MTT assay. Conditions: PC-3, 120 h, time 5 day. The format is functional. Background: Tetrazolium dyes change colour on reduction, which living cells bring about.
Data set [13] is described as follows: Drug excretion in Balb/c nude mouse xenografted with human 22Rv1 cells assessed as non-specifically bound drug at 0.449 mg/kg, IT administered as single dose measured after 24 hrs. Conditions: in vivo, other. The format is ADME, organism-based, CWR22R.
Data set [14] can be described thus: Water solubility of the compound. The format is physicochemical.
The nature of data set [15]: n-Octanol/aqueous buffer distribution coefficient, log D of compound at pH 6.4 by shake flask method. Format: physicochemical.
Data set [16] can be described thus: Drug uptake in bloodstream of Balb/c nude mouse xenografted with human 22Rv1 cells at 0.449 mg/kg, IT administered as single dose measured after 24 hrs. Conditions: in vivo, other. Format: ADME, organism-based, Blood, CWR22R.
Data set [17] in a line: Drug uptake in human 22Rv1 cells xenografted in Balb/c nude mouse assessed as amount of fluorescence intensity at 0.449 mg/kg, IT administered as single dose measured after 24 hrs by IVIS Spectrum CT analysis. Format: ADME, organism-based, CWR22R. Conditions: in vivo, other.
The target in data set [18] is T1, Glutamate carboxypeptidase 2. The experiment in a line: Inhibition of PMSA in human LNCaP cells assessed as increase in fluorescent signal upto 100 nM incubated for 1 hr by flow cytometry (reference value: 2.11%). The format is cell-based.
Target sequence in this assay (Q04609 whole entry, looked up): as above
In another data set the test system is LNCaP. The experiment in a line: Cytotoxicity against human LNCaP cells assessed as reduction in cell viability incubated for 5 days by MTT assay. The format is functional. As to conditions: 120 h, time 5 day.
A short description of data set [19]: Drug localisation in human LNCaP cells assessed as increase in fluorescent signal at 100 nM incubated for 2 hrs by Hoechst 33342 staining based fluorescence microscopy. The format is ADME, cell-based. As to conditions: 0.1 µM.
Data set [20] is described as follows: Drug uptake in human PC-3 cells xenografted in Balb/c nude mouse assessed as amount of fluorescence intensity at 0.449 mg/kg, IT administered as single dose measured after 24 hrs by IVIS Spectrum CT analysis. Format: ADME, organism-based. As to conditions: in vivo, other.

In the case of `O=C(O)CC[C@H](NC(=O)N[C@@H](CCCCN(Cc1cccc(Cl)c1)C(=O)CCCCCNC(=O)CCC(=O)N[C@@H](Cc1ccccc1)C(=O)N[C@@H](Cc1ccc(O)cc1)C(=O)NCCCn1cc(CNC(=O)c2cccc3c2C(=O)OC32c3ccc(O)cc3Oc3cc(O)ccc32)nn1)C(=O)O)C(=O)O`, the Drug uptake was 83.8% in data set [1]; “Active” in [2]; 7.6% in [3]; “Active” in [4]; “Active” in data set [5]; 14.4% in [6].

Take `CN1/C(=C/C=C/C=C/C2=[N+](CCCCCC(=O)NCc3cn(CCCNC(=O)[C@H](Cc4ccc(O)cc4)NC(=O)[C@H](Cc4ccccc4)NC(=O)CCC(=O)NCCCCCC(=O)N(CCCC[C@H](NC(=O)N[C@@H](CCC(=O)O)C(=O)O)C(=O)O)Cc4cccc(Cl)c4)nn3)c3ccc(S(=O)(=O)[O-])cc3C2(C)C)C(C)(C)c2cc(S(=O)(=O)O)ccc21`: the figures for the inhibition in [7], in [10] and in data set [18] were 2.79%, 35.3% and 95%, respectively. Besides, the Ki in data set [8] turned out to be 0.0026 µM. Besides, the Drug excretion result in [9] and in data set [13] was “Active” each time. Further, the Drug uptake result in data set [11], in data set [4], in data set [16], in data set [5] and in data set [19] was “Active” throughout. Besides, in [12], the “fold change (FC)” value is reported as 4.1. For the same compound, the CC50 with PC-3 and in the data set with LNCaP was above 100 µM in each case. Also, the concentration in solution in data set [14] (solubility) came to 7000 µg/mL (≈ 4.05 mM). The logD in data set [15] was -1.2. The Activity in [17] and in [20] was 1.5 10^9(p/s)(uW/cm^2) throughout.
